Measurements as given in patent US20240025906A1 (NEURON23, INC., priority 2022, published 2024).
Where two headings read alike, the source gives them in different places.

What was measured:
[1] = tested on: JAK1/TYK2 pSTAT5 (Tyr694/699) in THP-1 cell line; experiment: IFNa-stimulated JAK1/TYK2 pSTAT5 (Tyr694/699) inhibition cellular assay, AlphaLISA; format: cell-based; details: Homo sapiens, THP-1 cells, AlphaLISA (Assay B)
Procedure, shortened: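 pSTAT5 (Tyr694/699) in lysates quantified by AlphaLISA (615 nm) after 30 min IFNa stimulation (100 ng/mL stock) of THP-1 cells. The cells, 2e4 per well in HBSS, had first been exposed 1 h at 37° C. to eight 6-fold compound dilutions, 10000 down to 0.04 nM final. IC50 fitted by 4PL regression, bottom 0, Hill slope −1.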

TYK2 JH2 = biological target: T1, TYK2 JH2 (Homo sapiens, UniProt P29597); experiment: TYK2 JH2 binding assay (KINOMEscan KdELECT competitive binding); details: TYK2 JH2 domain
T1 construct: purchased DiscoverX (KINOMEscan KdELECT service); host or cells: E. coli BL21-derived (T7 phage display) or HEK-293
Procedure, shortened: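 JH2-domain fragment, expressed as T7 phage tag in BL21-derived E. coli or DNA-tagged from HEK-293, competed with test compound against bead-immobilized biotinylated ligand in binding buffer (0.9% DMSO). 1 h shaking at room temperature; bound kinase eluted with 0.5 μM free ligand and quantified by qPCR. Kd from 11-point 3-fold dilutions.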

[2] = IFNa-stimulated, read-out: Cellular THP1_IFNa-pSTATS_IC50
[3] = KINOMEscan KdELECT (Assay A), read-out: Biochemical TYK2_JH2_Kd
[4] = IFNa-stimulated, read-out: Cellular_THP1_IFNa-pSTATS_TYK2
[5] = DiscoverX KINOMEscan KdELECT (Assay A), read-out: Biochemical TYK2_DiscoverX_JH2_BND_Kd
[6] = KINOMEscan KdELECT (Assay A), read-out: Biochemical TYK2_DiscoverX_JH2_BND_Kd
[7] = IFNa-stimulated pSTAT5 (Tyr694/699), read-out: Cellular_THP1_IFNa-pSTATS_TYK2

T1 sequence (P29597 589-875 limits assumed): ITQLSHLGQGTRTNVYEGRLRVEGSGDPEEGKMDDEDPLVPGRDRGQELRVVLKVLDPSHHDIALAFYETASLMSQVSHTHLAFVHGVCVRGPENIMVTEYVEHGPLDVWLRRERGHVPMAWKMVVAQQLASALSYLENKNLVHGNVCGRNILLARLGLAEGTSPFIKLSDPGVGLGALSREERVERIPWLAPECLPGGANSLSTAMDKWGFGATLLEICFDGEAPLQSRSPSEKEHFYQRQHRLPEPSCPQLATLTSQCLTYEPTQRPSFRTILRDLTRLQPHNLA

Row | IC50 [1, 4] [µM] | Kd (TYK2 JH2; [6]) [µM] | Compound | also measured
1 | – | – | CNc1ncc(-n2cccn2)c2cc(NC(=O)C3CC3)ncc12 [Example 57, N-(8-(methylamino)-5-(1H-pyrazol-1-yl)-2,7-naphthyridin-3-yl)cyclopropanecarboxamide] | IC50 [1, 2]: > 0.5 µM; Kd (TYK2 JH2; [3]): ≤ 0.1 µM
2 | ≤ 0.5 | – | CNc1ncc(-c2nc3cc(N4CCC5(CC4)COC5)ccc3o2)c2cc(NC(=O)C3CC3)ncc12 [Example 310, N-(5-(5-(2-oxa-7-azaspiro[3.5]nonan-7-yl)benzo[d]oxazol-2-y1)~8-(methylamino)-2,7-naphthyridin-3-yl)cyclopropanecarboxamide] | Kd (TYK2 JH2; [5]): ≤ 0.1 µM
3 | ≤ 0.5 | ≤ 0.1 | CNc1ncc(C#Cc2ccc(N3CCO[C@H](C)C3)cc2)c2cc(NC(=O)C3CC3)nnc12 [Example 883, (R)—N-(8-(methylamino)-5-((4-(2-methylmorpholino)phenyl)ethynyl)pyrido[3,4-c]pyridazin-3-yl)cyclopropanecarboxamide] | –
4 | – | – | CNc1ncc(-c2ccccc2)c2cc(NC(=O)C3(F)CC3)ncc12 [Example 161, 1-fluoro-N-(8-(methylamino)-5-phenyl-2,7-naphthyridin-3-yl)cyclopropane-1-carboxamide] | IC50 [1, 2]: > 0.5 µM; Kd (TYK2 JH2; [3]): ≤ 0.1 µM
5 | ≤ 0.5 | ≤ 0.1 | CNc1ncc(C#Cc2ccc3nccnc3c2)c2cc(NC(=O)C3CC3)ncc12 [Example 627, N-(8-(methylamino)-5-(quinoxalin-6-ylethynyl)-2,7-naphthyridin-3-yl)cyclopropanecarboxamide] | –
6 | – | ≤ 0.1 | CNc1ncc(-c2nc3ccc(N4CCOC(CO)C4)cn3n2)c2cc(NC(=O)C3CC3)ncc12 (stereo not shown) [Example 1029] | IC50 [1, 7]: ≤ 0.5 µM
7 | ≤ 0.5 | – | CNc1ncc(-c2nc3cc(N4CCOC(C)C4)c(C)cc3o2)c2cc(NC(=O)C3CC3)ncc12 (stereo not shown) [Example 259, N-(5-(6-methyl-5-(2-methylmorpholino)benzo[d]oxazol-2-yl)-8-(methylamino)-2,7-naphthyridin-3-yl)cyclopropanecarboxamide] | Kd (TYK2 JH2; [5]): ≤ 0.1 µM
8 | ≤ 0.5 | – | CNc1ncc(-c2nc3ccc(N4C[C@H]5C[C@@H]4CO5)cn3n2)c2cc(NC(=O)C3CC3)ncc12 [Example 489, N-(5-(6-((1R,4R)-2-oxa-5-azabicyclo[2.2.1]heptan-5-yl)-[1,2,4]triazolo[1,5-a]pyridin-2-yl)-8-(methylamino)-2,7-naphthyridin-3-yl)cyclopropanecarboxamide] | Kd (TYK2 JH2; [5]): ≤ 0.1 µM
9 | ≤ 0.5 | ≤ 0.1 | CNc1ncc(C#Cc2ccc(C(F)(F)F)cn2)c2cc(NC(=O)C3CC3)ncc12 [Example 657, N-(8-(methylamino)-5-((5-(trifluoromethyl)pyridin-2-yl)ethynyl)-2,7-naphthyridin-3-yl)cyclopropanecarboxamide] | –
10 | ≤ 0.5 | – | CNc1ncc(-c2nc3cc(N4CCN(C5COC5)CC4)ccc3o2)c2cc(NC(=O)C3CC3)ncc12 [Example 314, N-(8-(methylamino)-5-(5-(4-(oxetan-3-yl)piperazin-1-yl)benzo[d]oxazol-2-yl)-2,7-naphthyridin-3-yl)cyclopropanecarboxamide] | Kd (TYK2 JH2; [5]): ≤ 0.1 µM
11 | ≤ 0.5 | ≤ 0.1 | CNc1ncc(C#Cc2ccc(OC)cc2CO)c2cc(NC(=O)C3CC3)ncc12 [Example 965, N-[5-[2-[2-(hydroxymethyl)-4-methoxy-phenyl]ethynyl]-8-(methylamino)-2,7-naphthyridin-3-yl]cyclopropanecarboxamide] | –
12 | – | ≤ 0.1 | CNc1ncc(C#Cc2cn(C)nn2)c2cc(NC(=O)[C@H]3C[C@H]3C)ncc12 [Example 1009] | IC50 [1, 7]: ≤ 0.5 µM
13 | ≤ 0.5 | ≤ 0.1 | CNc1ncc(C#Cc2ccc3ncn(C)c3c2)c2cc(NC(=O)C3CC3)ncc12 [Example 616, N-(5-((1-methyl-1H-benzo[d]imidazol-6-yl)ethynyl)-8-(methylamino)-2,7-naphthyridin-3-yl)cyclopropanecarboxamide] | –
14 | – | – | CNc1ncc(-c2ccccc2C(N)=O)c2cc(NC(=O)C3CC3)ncc12 [Example 41, 2-(6-(cyclopropanecarboxamido)-1-(methylamino)-2,7-naphthyridin-4-yl)benzamide] | IC50 [1, 2]: > 0.5 µM; Kd (TYK2 JH2; [3]): 0.1 to 1 µM
